This note sets out measurements from US20030100550A1, “Carboxamide diazepin derivatives, preparation method, use as medicines, pharmaceutical compositions and use thereof” (priority 2002, published 2003).

In one experiment the target is T1, Cathepsin K (Homo sapiens, UniProt P43235).
T1 sequence (P43235 115-329): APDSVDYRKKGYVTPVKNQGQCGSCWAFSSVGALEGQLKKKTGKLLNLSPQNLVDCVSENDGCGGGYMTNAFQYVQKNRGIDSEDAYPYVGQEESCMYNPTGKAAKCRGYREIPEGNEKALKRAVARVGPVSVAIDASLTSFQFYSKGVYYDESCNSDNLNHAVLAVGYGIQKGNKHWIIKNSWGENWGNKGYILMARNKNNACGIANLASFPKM
The experiment in a line: Study of Cathepsin K inhibition (fluorescence, Z-Val-arg-AMC). The class given is biochemical. To be noted: substrate Z-Val-arg-AMC 20 μM, enzyme 5 ng/ml, 2H at ambient temperature; read-out: Cathepsin K IC50. The procedure: Study of Cathepsin K Inhibition:
(§1) The products to be tested (10 mM) are diluted to […] in DMSO and distributed into Nunc polystyrene 96 well plates at a rate of 2 μl per well. Column 12 of the plate is reserved for the controls and therefore receives […] of DMSO (without products) per well. The plates are stored at −80° C. and thawed on the day of the experiment.
(§2) The products are diluted to 50 μM by adding 38 μl of reaction buffer: sodium acetate 100 mM, EDTA 5 mM, DTT […] pH 5.5. The addition as well as all the operations by pipette are carried out with a CybiWell 96 tip pipette. After mixing the solutions, each product is transferred into 2 wells (duplicates) of a Greiner black 384 well plate at a rate of 10 μl per well. Two 96-well plates can therefore be tested in a 384-well plate.
(§3) A solution of substrate at 50 μM, Z-Val-arg-AMC (Calbiochem), is prepared in the reaction buffer. The substrate, is then distributed into all the wells of the 384-well plate (20 μl per well).
(§4) A solution of Cathepsin K at 12.5 ng/ml is prepared in the reaction buffer and distributed into all the wells of the 384-well plate (20 μl per well) except for the 16 wells serving as 100% inhibition controls (column 23 and 24, lines I to P) which receive 20 μl of enzyme-free buffer.
(§5) The plates are then incubated 2H at ambient temperature, then read on Fluoroskan (Labsystems): excitation 390 nm; emission 460 nm
(§6) The final concentrations of each of the reagents are: products 10 μM, substrate 20 μM, enzyme 5 ng/ml.
(§7) The % inhibition for each of the products is calculated by using points at 0 and 100% inhibition of each plate as references. The products presenting a significant inhibition are then retested on a range of concentrations from 50 to 0.5 μM to determine an IC50.

The target in another experiment is T2, Cathepsin B (Homo sapiens, UniProt P07858).
T2 construct: purchased Calbiochem
Kind of experiment: Study of Cathepsin B inhibition (fluorescence, Z-arg-arg-AMC). The class given is biochemical. Conditions: substrate Z-arg-arg-AMC 20 μM, enzyme 16 ng/ml, 1 hour at ambient temperature. The procedure: as §1, §2, §3, §4, §5, §6, §7
Study of Cathepsin B Inhibition:
Protocol identical to that of Cathepsin K except for:
Z-arg-arg-AMC substrate (Calbiochem), solution at 50 μM, final concentration 20 μM
Cathepsin B (Calbiochem), solution at 40 ng/ml, final concentration 16 ng/ml
Incubation for 1 hour at ambient temperature

In the case of `C=CCOC(=O)CC[C@H](NC(=O)[C@@H]1CCCN2C(=O)CC[C@H](NC(=O)Nc3ccc(Oc4ccccc4)cc3)C(=O)N12)C(=O)C=[N+]=[N-]` [Example 43, (2-propenyl)(4S)6-diazo-4-[[[(1S,9S)-9-[[[(4-phenoxyphenyl)amino]carbonyl]amino]-octahydro-6,10-dioxo-6H-pyridazino[1,2-a][1,2]diazepine-1-yl]carbonyl]amino]-5-oxo-hexanoate], the half-maximal inhibitory concentration (IC50) – broadly, the midpoint of a concentration-inhibition curve – on Cathepsin K came out at 1.5 µM; on Cathepsin B, 15 µM.

Regarding `C=CCOC(=O)CC[C@H](NC(=O)[C@@H]1CCCN2C(=O)CC[C@H](NS(=O)(=O)c3ccc(-c4ccon4)s3)C(=O)N12)C(=O)C=[N+]=[N-]` [Example 48, (2-propenyl)(4S)6-diazo-4-[[[(1S,9S)-9-[[[5-(isoxazol-3-yl)-2-thienyl]sulphonyl]amino]-octahydro-6,10-dioxo-6H-pyridazino[1,2-a][1,2]diazepine-1-yl]carbonyl]amino]-5-oxo-hexanoate], the half-maximal inhibitory concentration (IC50) was 3 µM at Cathepsin K and 7 µM against Cathepsin B.

Consider `C=CCOC(=O)CC[C@H](NC(=O)[C@@H]1CCCN2C(=O)CC[C@H](NC(=O)c3ccco3)C(=O)N12)C(=O)COC(=O)c1c(Cl)cccc1Cl` [Example 91, (2-propenyl)(4S)6-[(2,6-dichlorobenzoyl)oxy]-4-[[[(1S,9S)-9-[[(2-furanyl)carbonyl]amino]-octahydro-6,10-dioxo-6H-pyridazino[1,2-a][1,2]diazepine-1-yl]carbonyl]amino]-5-oxo-hexanoate], for which the values for the IC50 at Cathepsin K and on Cathepsin B were 6 µM and below 0.2 µM, respectively.

Consider `C=CCOC(=O)CC[C@H](NC(=O)[C@@H]1CCCN2C(=O)CC[C@H](NS(=O)(=O)c3ccc(C(F)(F)F)cc3)C(=O)N12)C(=O)COC(=O)c1c(Cl)cccc1Cl` [Example 101, (2-propenyl)(4S)6-[(2,6-dichlorobenzoyl)oxy]-4-[[[(1S,9S)-9-[[[4-(trifluoromethyl)phenyl]sulphonyl]amino]-octahydro-6,10-dioxo-6H-pyridazino[1,2-a][1,2]diazepine-1-yl]carbonyl]amino]-5-oxo-hexanoate], for which, on Cathepsin B, the IC50 is 6 µM.

Regarding `COc1cccc(C(=O)N[C@H]2CCC(=O)N3CCC[C@@H](C(=O)N[C@@H](Cc4ccccc4)C(=O)COC(=O)c4c(Cl)cccc4Cl)N3C2=O)c1` [Example 185, 9-[(9S)-(3-methoxybenzoyl)amino]-N-((2S)-4-[(2,6-dichlorobenzoyl)oxy]-1-phenyl-3-oxo-2-butyl]-octahydro-6,10-dioxo-6H-(1S)-pyridazino[1,2-a][1,2]diazepine-1-carboxamide], the half-inhibitory concentration (IC50) against Cathepsin B came out at 7 µM.

With `O=C(N[C@H]1CCC(=O)N2CCC[C@@H](C(=O)N[C@@H](Cc3ccccc3)C(=O)COC(=O)c3c(Cl)cccc3Cl)N2C1=O)c1ccco1` [Example 192, 9-[(9S)-[(2-furanyl)carbonyl]amino]-N-[(2S)-4-[(2,6-dichlorobenzoyl)oxy]-1-phenyl-3-oxo-2-butyl]-octahydro-6,10-dioxo-6H-(1S)-pyridazino[1,2-a][1,2]diazepine-1-carboxamide], the results for the IC50 at Cathepsin K and on Cathepsin B were 20 µM and 18 µM, respectively.

For the compound `O=C(NCCc1cccs1)N[C@H]1CCC(=O)N2CCC[C@@H](C(=O)N[C@@H](Cc3ccccc3)C(=O)CN3CCN(CC(=O)N4CCCC4)CC3)N2C1=O` [Example 229], the concentration for half-maximal inhibition (IC50) on Cathepsin K is 20 µM; against Cathepsin B, 18 µM.

Compound `CC(C)C[C@H](NC(=O)[C@@H]1CCCN2C(=O)CC[C@H](NS(=O)(=O)c3ccc(C(F)(F)F)cc3)C(=O)N12)C(=O)COC(=O)c1c(Cl)cccc1Cl` [Example 313, 9-[(9S)-[[[4-(trifluoromethyl)phenyl]sulphonyl]amino]]-N-[(3S)-5-methyl-1-[(2,6-dichlorobenzoyl)oxy]-2-oxo-3-hexyl]-octahydro-6,10-dioxo-6H-(1S)-pyridazino[1,2-a][1,2]diazepine-1-carboxamide] yielded an IC50 against Cathepsin B of 5 µM.

For `CC(C)C[C@H](NC(=O)[C@@H]1CCCN2C(=O)CC[C@H](NC(=O)NC3CCCCC3)C(=O)N12)C(=O)C=[N+]=[N-]` [Example 343, 9-[(9S)-[(cyclohexylamino)carbonyl]amino]-N-((3S)-1-diazo-5-methyl-2-oxo-3-hexyl)-octahydro-6,10-dioxo-6H-(1S)-pyridazino[1,2-a][1,2]diazepine-1-carboxamide], at Cathepsin K, the half-inhibitory concentration (IC50) was 14 µM.

On to `CC(C)C[C@H](NC(=O)[C@@H]1CCCN2C(=O)CC[C@H](NC(=O)Nc3ccc(Oc4ccccc4)cc3)C(=O)N12)C(=O)C=[N+]=[N-]` [Example 344, 9-[(9S)-[[(4-phenoxyphenyl)amino]carbonyl]amino]-N-((3S)-1-diazo-5-methyl-2-oxo-3-hexyl)-octahydro-6,10-dioxo-6H-(1S)-pyridazino[1,2-a][1,2]diazepine-1-carboxamide], for which the IC50 on Cathepsin K amounted to 5 µM.

For the compound `CC(C)C[C@H](NC(=O)[C@@H]1CCCN2C(=O)CC[C@H](NC(=O)NCCc3cccs3)C(=O)N12)C(=O)C=[N+]=[N-]` [Example 345, 9-[(9S)-[[[2-(thien-2-yl)-ethyl]amino]carbonyl]amino]-N-((3S)-1-diazo-5-methyl-2-oxo-3-hexyl)-octahydro-6,10-dioxo-6H-(1S)-pyridazino[1,2-a][1,2]diazepine-1-carboxamide], the IC50 at Cathepsin K turned out to be 5 µM.

On to `CC(C)C[C@H](NC(=O)[C@@H]1CCCN2C(=O)CC[C@H](NS(C)(=O)=O)C(=O)N12)C(=O)C=[N+]=[N-]` [Example 346, 9-[(9S)-(methylsulphonyl)amino]-N-((3S)-1-diazo-5-methyl-2-oxo-3-hexyl)-octahydro-6,10-dioxo-6H-(1S)-pyridazino[1,2-a][1,2]diazepine-1-carboxamide], for which the IC50 at Cathepsin K turned out to be 6 µM.

`CC(C)C[C@H](NC(=O)[C@@H]1CCCN2C(=O)CC[C@H](NS(=O)(=O)c3ccc4ccccc4c3)C(=O)N12)C(=O)C=[N+]=[N-]` [Example 348, 9-[(9S)-[(2-naphthalenyl)sulphonyl]amino]-N-((3S)-1-diazo-5-methyl-2-oxo-3-hexyl)-octahydro-6,10-dioxo-6H-(1S)-pyridazino[1,2-a][1,2]diazepine-1-carboxamide]: on Cathepsin K, the concentration for half-maximal inhibition (IC50) came to 10 µM.

On Cathepsin B, `C[C@H](NC(=O)[C@@H]1CCCN2C(=O)CC[C@H](NC(=O)c3ccco3)C(=O)N12)C(=O)COC(=O)c1c(Cl)cccc1Cl` [Example 443, 9-[(9S)-[(2-furanyl)carbonyl]amino]-N-[(2S)-4-[(2,6-dichlorobenzoyl)oxy]-3-oxo-2-butyl]-octahydro-6,10-dioxo-6H-(1S)-pyridazino[1,2-a][1,2]diazepine-1-carboxamide] gave an IC50 of 5 µM.

As for `COc1cccc(C(=O)N[C@H]2CCC(=O)N3CCC[C@@H](C(=O)N[C@@H](C)C(=O)COC(=O)c4c(Cl)cccc4Cl)N3C2=O)c1` [Example 463, 9-[(9S)-(3-methoxybenzoyl)amino]-N-[(2S)-4-[(2,6-dichlorobenzoyl)oxy]-3-oxo-2-butyl]-octahydro-6,10-dioxo-6H-(1S)-pyridazino[1,2-a][1,2]diazepine-1-carboxamide], at Cathepsin B, the IC50 came to 1.5 µM.

`C[C@H](NC(=O)[C@@H]1CCCN2C(=O)CC[C@H](NS(=O)(=O)c3ccc(C(F)(F)F)cc3)C(=O)N12)C(=O)COC(=O)c1c(Cl)cccc1Cl` [Example 481, 9-[(9S)-[[4-(trifluoromethyl)phenyl]sulphonyl]amino]-N-[(2S)-4-[(2,6-dichlorobenzoyl)oxy]-3-oxo-2-butyl]-octahydro-6,10-dioxo-6H-(1S)-pyridazino[1,2-a][1,2]diazepine-1-carboxamide] came in with an IC50 against Cathepsin B of 6 µM.
